The target in data set [1] is SARS-CoV-2 PL^pro (Severe acute respiratory syndrome coronavirus 2, UniProt P0DTD1). In words: biochemical. The note with it: for inhibition [%] SARS-CoV-2 PLpro: [E] = 100 nM, [I] = 1 µM, [S] = 10 µM; for inhibition at 1 µM: 0.5 h, read-out: inhibition [%] SARS-CoV-2 PLpro.
The target in data set [2] is SARS-CoV-2 M^pro (Severe acute respiratory syndrome coronavirus 2, UniProt P0DTD1). In words: biochemical. The note with it: for inhibition at 0.1 µM: read-out: inhibition [%] SARS-CoV-2 Mpro, [I] = 100 nM; for inhibition at 1 µM: read-out: inhibition [%] SARS-CoV-2 Mpro, [I] = 1 µM.
For data set [3], the target named is SARS-CoV-2 nsp14 N7-MTase (Severe acute respiratory syndrome coronavirus 2, UniProt P0DTD1). Kind of data set: Py-FLINT fluorescence assay of nsp14 N7-MTase. The data set is classed as biochemical. The note with it: for SARS-CoV-2 nsp14 Hill coefficient p: four-parameter dose-response fit, variable Hill slope.
Protocol: To determine their IC50 values, we used the previously described fluorescence assay Py-FLINT[42],[67]. To this end, the Py-FLINT probe (1 μM) was incubated with SAM cosubstrate (20 μM), nsp14 enzyme (40 nM), and half-log inhibitor dilutions in 50 mM Tris–HCl pH 7.5 buffer at 30 °C. The reaction progress was monitored in 96-well cells by registering the fluorescence intensity signal with a 1-min time interval. Using the initial reaction course, the values of initial rates V were calculated. To calculate IC50 values from the obtained dependences of initial rates versus inhibitor concentration, we fitted a four-parameter dose–response equation, assuming a variable Hill slope p (Table 3, Fig. S2).
The Py-FLINT probe (1 μM) was incubated with SAM cosubstrate (20 μM), nsp14 (40 nM), and an inhibitor (half-log dilutions logCinh < − 2.5; 2 >). […] Initial rates V were calculated by fitting a linear curve to the first 10 points (10 min). To the obtained dependences V(Cinh) the following four-parameter dose–response equation was fitted:1 V/V0=A1+A2-A1/1+Cinh/IC50^p, where A1 and A2 are the bottom and top asymptotes, respectively; Cinh the inhibitor concentration; p is the Hill coefficient, and V/V0 is the ratio of the initial reaction rate with the inhibitor to that without the inhibitor. For curve fitting and IC50 calculations we used GraphPad Prism software.
Data set [4] has as its system A549 human cell line. Particulars: cited from earlier work.
Data set [5] concerns Vero E6 cells. Kind of data set: Cytotoxicity assay (XTT) in Vero E6 cells. The data set is classed as cell-based. The note with it: Vero E6 cells, three days, XTT. The method, then:
(§1) Cytotoxicity was evaluated by incubating two-fold serial dilutions of each compound with Vero E6 cells.
For orientation: Formazan colour is commonly taken as a measure of viable cells.

Data set [6] concerns SARS-CoV-2. In words: Cytopathic effect (CPE)-based anti-SARS-CoV-2 assay in Vero E6 cells. The note with it: read-out: EC50 CPE, three days, XTT. For orientation: Protection from cytopathic effect is a common read-out in antiviral testing.
The test system of data set [7] is SARS-CoV-2. Kind of data set: RNA reduction-based anti-SARS-CoV-2 assay (RT-qPCR) in Vero E6 cells. Particulars: read-out: EC50 RNA, two days, RT-qPCR of medium. In general terms: Real-time PCR tracks product formation cycle by cycle.
A short description of data set [8]: Cytotoxicity assay (XTT) in Vero E6 cells. The data set is classed as cell-based. The note with it: African green monkey; Vero E6 cells, three days, XTT; read-out: CC50. The method, then: as §1

As usually defined, the inhibition is the share of the control response that was lost under treatment. The term melting point denotes the temperature of the solid-liquid transition. The term IC50 denotes the concentration that inhibits the measured activity by half. Read a high IC50 as weaker potency. The term CC50 denotes the concentration giving 50% cytotoxicity. Usually EC50 stands for the concentration needed to bring the measured effect to its halfway point.

As to `O=c1c2ccccc2[se]n1-c1ccccc1[N+](=O)[O-]` [Compound 6], the “inhibition [%] SARS-CoV-2 PLpro” value in data set [1] was 46.6 ± 2.3%. Besides, the inhibition at 0.1 µM in data set [2] amounted to 38.5 ± 2.3%.

Turning to `COc1ccc(-n2[se]c3ccccc3c2=O)c(OC)c1` [Compound 16], the melting point was in the range of 238 to 240 °C. The inhibition at 1 µM in data set [1] was 64.3 ± 3.8%. Moreover, in data set [2], the inhibition at 0.1 µM is 59 ± 1.5%. For the same molecule, the “SARS-CoV-2 nsp14 Hill coefficient p” value in [3] is reported as 2.36 ± 0.32. In addition, the “toxicity in A549 cells, times lower in comparison with ebselen” value in data set [4] is reported as 10 times.

Turning to `O=c1c2ccccc2[se]n1-c1ccc(I)cc1` [Compound 11], the melting point lay in the range of 203 to 204 °C. Further, the inhibition at 1 µM in data set [1] was 48 ± 2.1%. Also, the inhibition at 0.1 µM in data set [2] was 71.6 ± 5.6%.

For the molecule `COc1ccc(-n2[se]c3ccccc3c2=O)cc1OC` [Compound 23], the inhibition at 1 µM in data set [1] was 58 ± 1.9%. Also, the inhibition at 0.1 µM in data set [2] was determined as 60.6 ± 0.4%.

As for `Cc1ccc(Cl)cc1NC(=O)c1ccccc1[Se][Se]c1ccccc1C(=O)Nc1cc(Cl)ccc1C` [Compound 32], the “inhibition [%] SARS-CoV-2 PLpro” value in data set [1] is 72.4 ± 1.7%. Also, in data set [2], the inhibition at 0.1 µM was found to be 55.4 ± 3.8% and the inhibition at 1 µM is 100%. In data set [3], this molecule had a concentration for half-maximal inhibition (IC50) of 12.1 ± 1.1 µM. In [5], this molecule registered a CC50 greater than 50 µM. For the same molecule, in [6], the concentration giving a half-maximal response (EC50) stood at 22 ± 2.5 µM.

For the molecule `O=c1c2ccccc2[se]n1-c1ccc(C(F)(F)F)cc1` [Compound 9], in data set [1], the inhibition at 1 µM came out at 48 ± 3.6%. Moreover, the inhibition at 0.1 µM in data set [2] is 71 ± 9.3%.

As to `COc1cccc(NC(=O)c2ccccc2[Se][Se]c2ccccc2C(=O)Nc2cccc(OC)c2)c1` [Compound 28], the “inhibition [%] SARS-CoV-2 PLpro” value in [1] is 81.9 ± 0.8%. In addition, in [2], the inhibition at 0.1 µM was found to be 37 ± 4.3% and the inhibition at 1 µM was determined as 100%. Besides, half-maximal inhibition in data set [3] (IC50) required 0.58 ± 0.04 µM. Besides, the CC50 in data set [5] is greater than 50 µM. Besides, the EC50 in [6] was 7.6 ± 0.71 µM. In addition, in data set [7], the half-maximal effective concentration (EC50) is 2.7 ± 0.23 µM.

Turning to `O=C(Nc1ccc(Cl)cc1F)c1ccccc1[Se][Se]c1ccccc1C(=O)Nc1ccc(Cl)cc1F` [Compound 30], the “inhibition [%] SARS-CoV-2 PLpro” value in [1] amounted to 75.1 ± 0.4%. Moreover, in data set [2], the inhibition at 0.1 µM came to 27.4% and the inhibition at 1 µM stood at 49.6 ± 2.7%. Half-maximal inhibition in data set [3] (IC50) required 11.5 ± 1.4 µM. The molecule also came in with a CC50 in data set [5] greater than 50 µM. In addition, the EC50 in data set [6] was 1.1 ± 0.15 µM. In addition, in [7], the 50% effective concentration (EC50) amounted to 1.9 ± 0.1 µM.

`O=c1c2ccccc2[se]n1-c1cc(Cl)ccc1Cl` [Compound 18]: the “inhibition [%] SARS-CoV-2 PLpro” value in data set [1] is listed as 47.8 ± 0.9%. Besides, the inhibition at 0.1 µM in data set [2] was 72.3 ± 3.1%.

Turning to `O=C(Nc1c(F)cccc1Cl)c1ccccc1[Se][Se]c1ccccc1C(=O)Nc1c(F)cccc1Cl` [Compound 34], the “inhibition [%] SARS-CoV-2 PLpro” value in data set [1] was 60.2 ± 1.7%. Also, in data set [2], the inhibition at 0.1 µM worked out at 32 ± 2.1% and the inhibition at 1 µM stood at 43.1 ± 3%. Moreover, the IC50 in data set [3] worked out at 2.1 ± 0.58 µM. The molecule further had a CC50 in [5] greater than 50 µM. In addition, the EC50 in [6] turned out to be 9.3 ± 0.92 µM. For the same molecule, the concentration for a half-maximal effect (EC50) in data set [7] is 3.4 ± 0.2 µM.

On to `O=c1c2ccccc2[se]n1-c1ccccc1C(F)(F)F` [Compound 5], for which, in [1], the “inhibition [%] SARS-CoV-2 PLpro” value was found to be 44.4 ± 2.5%. The inhibition at 0.1 µM in data set [2] is 62.8 ± 0.7%.

`CC(=O)c1ccc(-n2[se]c3ccccc3c2=O)cc1` [Compound 12]: the “inhibition [%] SARS-CoV-2 PLpro” value in data set [1] was 59.0 ± 3.0%. Besides, in [2], the inhibition at 0.1 µM is 55.1 ± 2.7%.

Take `O=c1c2ccccc2[se]n1-c1ccc(Cl)cc1F` [Compound 15]: the “inhibition [%] SARS-CoV-2 PLpro” value in data set [1] came out at 55.7 ± 3.1%. Moreover, the inhibition at 0.1 µM in [2] was 77.1 ± 2.8%.

As for `O=c1c2ccccc2[se]n1-c1cc(Cl)ccc1F` [Compound 17, 2-(5-chloro-2-fluorophenyl)-1,2-benzisoselenazol-3(2H)-one], the inhibition at 1 µM in data set [1] was 47.2 ± 1%. Also, the inhibition at 0.1 µM in [2] came to 82.3 ± 2.1%. Besides, in data set [3], the “SARS-CoV-2 nsp14 Hill coefficient p” value amounted to 2.15 ± 0.28.

On to `O=C(Nc1ccc(C(F)(F)F)cc1)c1ccccc1[Se][Se]c1ccccc1C(=O)Nc1ccc(C(F)(F)F)cc1` [Compound 29], for which the “inhibition [%] SARS-CoV-2 PLpro” value in [1] amounted to 61.3 ± 3.4%. In data set [2], the inhibition at 0.1 µM was determined as 14 ± 2.4% and the inhibition at 1 µM turned out to be 100%. The molecule further displayed a 50% inhibitory concentration (IC50) in data set [3] of 4.5 ± 1.3 µM. Moreover, in data set [5], the half-maximal cytotoxic concentration (CC50) was greater than 50 µM. Further, the concentration giving a half-maximal response (EC50) in [6] came to 29 ± 3.5 µM.

Regarding `CCC(CC)COC(=O)[C@H](C)N[P@](=O)(OC[C@H]1O[C@@](C#N)(c2ccc3c(N)ncnn23)[C@H](O)[C@@H]1O)Oc1ccccc1` [Remdesivir, reference compound], the CC50 at 3 days in data set [8] is greater than 50 µM. The EC50 is 0.1 ± 0.01 µM in [6] and 0.66 ± 0.06 µM in [7].

With `O=c1c2ccccc2[se]n1-c1ccccc1Cl` [Compound 2], the inhibition at 1 µM in [1] amounted to 56.7 ± 4.1%. Further, in data set [2], the inhibition at 0.1 µM was found to be 66.5 ± 3.4%.

The values are drawn from paper PMC10242237 (Scientific Reports, 2023).
